pEC50: −log10 of the molar value.
How the values were obtained:
[1] = biological target: T1, PPARγ (Homo sapiens, UniProt P37231); experiment: PPAR cotransfection (transactivation) assay in CV-1 cells; assay type: cell-based
T1 construct: expressed in transfected cells; host or cells: CV-1 cells
T1 sequence (P37231 1-505): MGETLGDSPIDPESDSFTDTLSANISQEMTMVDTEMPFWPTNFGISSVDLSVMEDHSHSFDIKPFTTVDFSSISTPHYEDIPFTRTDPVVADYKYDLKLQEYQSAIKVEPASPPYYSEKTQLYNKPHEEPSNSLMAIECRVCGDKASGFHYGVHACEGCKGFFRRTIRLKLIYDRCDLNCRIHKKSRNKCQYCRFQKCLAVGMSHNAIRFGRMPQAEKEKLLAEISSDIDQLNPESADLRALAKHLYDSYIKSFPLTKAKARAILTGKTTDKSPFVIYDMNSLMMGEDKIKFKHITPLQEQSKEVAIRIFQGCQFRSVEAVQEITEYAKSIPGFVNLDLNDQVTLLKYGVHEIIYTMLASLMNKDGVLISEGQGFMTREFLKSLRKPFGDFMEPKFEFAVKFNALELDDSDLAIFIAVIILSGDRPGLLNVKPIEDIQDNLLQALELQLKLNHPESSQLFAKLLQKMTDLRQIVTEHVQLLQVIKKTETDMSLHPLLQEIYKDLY
Method: (§1) DNA-dependent binding is carried out using SPA technology with PPAR receptors. Tritium-labeled PPARα agonists are used as radioligands for generating displacement curves and IC50 values with compounds of the invention. Cotransfection assays are carried out in CV-1 cells. The reporter plasmid contained an acylCoA oxidase (AOX) PPRE and TK promoter upstream of the luciferase reporter cDNA. Appropriate PPARs are constitutively expressed using plasmids containing the CMV promoter. For PPARα, interference by endogenous PPARγ in CV-1 cells is an issue. In order to eliminate such interference, a GAL4 chimeric system is used in which the DNA binding domain of the transfected PPAR is replaced by that of GAL4, and the GAL4 response element is utilized in place of the AOX PPRE. Cotransfection efficacy is determined relative to PPAR agonist reference molecules. Efficacies are determined by computer fit to a concentration-response curve, or in some cases at a single high concentration of agonist (10 μM).
(§2) These studies are carried out to evaluate the ability of compounds of the invention to bind to and/or activate various nuclear transcription factors, particularly huPPARδ (“hu” indicates “human”). These studies provide in vitro data concerning efficacy and selectivity of compounds of the invention.

[2] = biological target: T2, PPARδ (Homo sapiens, UniProt Q03181); experiment: as above; assay type: cell-based
T2 construct: expressed in transfected cells; host or cells: CV-1 cells
T2 sequence (Q03181 1-441): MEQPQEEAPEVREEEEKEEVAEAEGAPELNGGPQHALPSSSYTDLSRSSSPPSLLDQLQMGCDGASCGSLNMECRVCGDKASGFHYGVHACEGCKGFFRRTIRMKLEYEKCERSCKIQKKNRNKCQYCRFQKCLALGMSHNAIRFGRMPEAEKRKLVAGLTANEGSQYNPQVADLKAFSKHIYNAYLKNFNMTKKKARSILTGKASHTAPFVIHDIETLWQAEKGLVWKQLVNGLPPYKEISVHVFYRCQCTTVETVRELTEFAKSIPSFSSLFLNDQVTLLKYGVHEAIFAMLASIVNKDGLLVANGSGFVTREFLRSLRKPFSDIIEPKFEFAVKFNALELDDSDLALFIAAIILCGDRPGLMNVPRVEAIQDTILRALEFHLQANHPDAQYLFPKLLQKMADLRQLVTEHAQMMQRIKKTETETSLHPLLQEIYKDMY
Method: as §1, §2

[3] = test system: obese, non-diabetic rhesus monkeys; experiment: Dyslipidemic rhesus monkey model, oral dose-escalation study for 28 days; assay type: in vivo
Method: The compound of Formula 1 was examined in a dyslipidemic rhesus monkey model. […] HDL cholesterol increased by more than 40% in the 3.0 mg/kg b.i.d. dose group. LDL cholesterol decreased by approximately 25% in the 9.0 mg/kg b.i.d dose group, and a dose-related effect on triglycerides yielded a maximum 53% reduction in the 9.0 mg/k.g b.i.d dose group.

[4] = biological target: T3, PPARα (Homo sapiens, UniProt Q07869); experiment: PPAR cotransfection (transactivation) assay in CV-1 cells, GAL4 chimeric system; assay type: cell-based
T3 sequence (Q07869 201-468 limits assumed): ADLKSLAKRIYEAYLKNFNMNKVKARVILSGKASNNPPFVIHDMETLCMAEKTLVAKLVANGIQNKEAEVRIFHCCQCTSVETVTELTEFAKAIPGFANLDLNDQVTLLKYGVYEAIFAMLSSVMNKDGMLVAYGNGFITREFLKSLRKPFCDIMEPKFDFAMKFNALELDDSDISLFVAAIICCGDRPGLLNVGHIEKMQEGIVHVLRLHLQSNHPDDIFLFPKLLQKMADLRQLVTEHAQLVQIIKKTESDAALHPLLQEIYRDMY
Method: as §1, §2

pEC50 [1]: 5.59 | pEC50 [2]: 7.70 | pEC50 [4]: 5.74
SMILES: Cc1cc(SCc2cn(-c3ccc(C(F)(F)F)cc3)nc2C)ccc1OCC(=O)O [Formula 1, {2-Methyl-4-[3-methyl-1-(4-trifluoromethyl-phenyl)-1H-pyrazol-4-ylmethylsulfanyl]-phenoxy}-acetic acid]
C-reactive protein levels ([3]; compared to pretreatment levels): reduced compared to pretreatment levels | HDL-c change ([3]; oral dose-escalation, 28 days, each dose): elevation of HDL-c with each dose | HDL cholesterol increase ([3]; oral, 3.0 mg/kg b.i.d. dose group): more than 40% | LDL cholesterol decrease ([3]; oral, 9.0 mg/kg b.i.d. dose group): approximately 25% | triglycerides maximum reduction ([3]; oral, 9.0 mg/kg b.i.d. dose group, dose-related effect): 53%
